Reference: patent US20240299414A1, “SUBCUTANEOUS OR INTRAMUSCULAR INJECTION FORMULATIONS OF ILOPROST” (EICOS SCIENCES, INC., priority 2020, published 2024)
Read-outs that look alike come from different tables or passages of the source.

Legend:
[1] = Heat exposure study (sterilization cycles); type: physicochemical; conditions: pH about 8.0-8.1 versus about 7.0-7.2; light and heat exposure studies
Description: Approximately 200 mL of the prepared formulation was filtered through a Millipak 200, 0.22μ filter for light exposure study and heat exposure study (100 mL for each study).
Heat Exposure Study: Approximately 1.1 mL of formulation was placed each into 40 clean 2 cc vials and the vials were capped with 13 mm caps. One set of 20 vials were wrapped with autoclave tape, placed into an autoclave bag and labeled as B1. Another set of 20 vials were wrapped with autoclave tape, placed into an autoclave bag and labeled as B2. All vials were exposed through one sterilization cycle at 121° C. for approximately 30 minutes, then B1 vials were analyzed for pH and assayed by HPLC. The B2 vials were then exposed to a second sterilization cycle at ≥121° C. for ≥15 minutes. The B2 vials were analyzed for pH and assayed by HPLC for iloprost and impurities.

[2] = system: symptomatic Raynaud's Phenomenon attacks in subjects with Systemic Sclerosis; assay: Multicenter double-blind randomized placebo-controlled study of intravenous iloprost, efficacy by ePRO diary; type: in vivo, human; conditions: for Subgroup comparison of prior vs after, LS mean difference in change (SE) of treatment difference: randomized prior to vs after 3 Jun. 2019
Source text: This was a multicenter, double-blind, randomized, placebo-controlled study to provide an initial evaluation of the effect of iloprost on the symptomatic relief of RP attacks in subjects with SSc. As a pilot study, it was not powered to provide a definitive estimate of the effect of iloprost. Importantly, this study tested the feasibility of collecting the study endpoints and logistics of study operations that included, among other things, an electronic patient-reported outcomes (ePRO) diary for the evaluation of subject response to the treatment, as well as the infusion workflow for this multiday treatment. Subjects were allowed to continue receiving stable standard of care therapies for the management of symptomatic RP (e.g., calcium channel blockers, angiotensin-converting enzyme inhibitors, statins, fluoxetine, and low-dose acetylsalicylic acid) or may have participated without the use of background standard of care therapies. The study consisted of an up to 30-day screening period during which subjects completed a daily ePRO diary to record information regarding all symptomatic RP attacks (e.g., severity of symptoms, duration, and hand function). […] The baseline ePRO diary completion period may have been extended beyond 10 days in order to accommodate the preferred Monday through Friday dosing schedule. The ePRO symptomatic RP attack data from this time period were used for the calculation of the baseline frequency of symptomatic RP attacks. […] Randomization was stratified based on the use of phosphodiesterase inhibitors at screening. Study drug administration began on Day 1, and subjects received study drug for 5 consecutive days (e.g., Monday through Friday) as an IV infusion over 6 hours each day via a peripheral line (NovaCath™ Integrated IV Catheter System) or a peripherally inserted central catheter using an infusion pump. […] On Day 1, study drug was initiated at a starting dose of 0.5 ng/kg/min, and dose increases occurred every 30 minutes (±5 minutes) in increments of 0.5 ng/kg/min up to 2.0 ng/kg/min or the individual tolerated dose. If dose-limiting adverse events (e.g., headache, flushing, jaw pain, myalgia, nausea, or vomiting) occurred that could not be tolerated by the subject, or if the subject experienced symptomatic hypotension, then the dose was reduced in a step-wise manner by 0.5 ng/kg/min every 30 minutes (±5 minutes) until a tolerated dose was determined or the infusion was stopped until the symptoms resolved at which point the study drug was reinitiated at a previously tolerated dose. If symptomatic hypotension or a dose-limiting adverse event occurred during administration of iloprost at the starting dose (i.e., 0.5 ng/kg/min), the infusion was reduced to 0.25 ng/kg/min. […] Blood pressure and heart rate were monitored 15 minutes (±5 minutes) prior to and after all dose changes. The maximum tolerated dose was maintained for the remaining 6-hour daily period. At the end of the 6-hour infusion period, the dose was stopped. Subjects were to be monitored for up to 1 hour after completion of study drug infusion (i.e., vital signs were obtained 15 minutes [+5 minutes] and 1 hour [+15 minutes] after completion of the infusion). […] Vital signs were measured prior to study drug administration and at 15 minutes (±5 minutes) prior to and after all dose changes during the infusion. Additionally, vital signs were monitored at 15 minutes (±5 minutes) and 1 hour (±15 minutes) after completion of the 6-hour infusion. Subjects were contacted via telephone on Day 8 to ensure they resumed completion of the daily ePRO diary; subjects completed the ePRO diary from Day 8 through Day 21. On Day 22, subjects returned to the clinic for post-treatment evaluations. A follow-up visit occurred 30 days after the last administration of study drug (Day 35). Symptomatic Raynaud's Phenomenon attacks: […] The attack was considered over when the color changed back to pre-attack color (normal) and the symptoms returned to the subject's pre-attack level. […]

[3] = cited from earlier work
[4] = baseline to double-blind endpoint
[5] = subgroup randomized after 3 Jun. 2019, N = 9
[6] = subgroup randomized prior to 3 Jun. 2019, n = 8

## CC#CCC(C)[C@H](O)/C=C/[C@@H]1[C@H]2C/C(=C/CCCC(=O)O)C[C@H]2C[C@H]1O (stereo partly drawn) [Iloprost, (5E)-5-[(3aS,4R,5R,6aS)-5-hydroxy-4-[(E,3S)-3-hydroxy-4-methyloct-1-en-6-ynyl]-3,3a,4,5,6,6a-hexahydro-1H-pentalen-2-ylidene]pentanoic acid]
[1]
  stability of iloprost versus pH: more stable at higher pH of about 8.0-8.1
[2]; 11-point NRS
  Average overall severity of symptomatic RP attacks, LS mean difference in change vs placebo (SE): −0.47 (0.604)
[2]; 11-point NRS, Days 8 to 21, N = 17
  Average overall severity of symptomatic RP attacks, Double-blind endpoint, Mean (SD): 3.39 (2.169)
[2]; 11-point NRS, N = 17
  Change from baseline in average overall severity of symptomatic RP attacks, LS mean (SE): −2.12 (0.439)
[2]; 11-point NRS, before treatment, N = 17
  Average overall severity of symptomatic RP attacks, Baseline, Mean (SD): 5.30 (1.818)
[2]; ANCOVA, baseline to double-blind endpoint, N = 17
  Change from baseline in weekly frequency of symptomatic RP attacks, LS mean (SE): −15.09 (2.961)
[2]; ANCOVA, iloprost vs placebo, N = 17 per group
  Weekly frequency of symptomatic RP attacks, LS mean difference in change vs placebo (SE): −0.77 (4.047)
[2]; Days 8 to 21, N = 17
  Average weekly duration of symptomatic RP attacks, Double-blind endpoint, Mean (SD): 345.82 (402.713) minutes
[2]; Days 8 to 21 after IV infusion 6 h/day for 5 days, up to 2.0 ng/kg/min, N = 17
  Weekly frequency of symptomatic RP attacks, Double-blind endpoint, Mean (SD): 23.57 (14.578)
[2]; N = 17
  Change from baseline in average weekly duration of symptomatic RP attacks, LS mean (SE): −267.49 (78.273) minutes
[2]; all analytical measures
  Difference in change in weekly frequency of symptomatic RP attacks compared to placebo, significance: not statistically significant
[2]; baseline ePRO diary period (10 to 25 days) before treatment, N = 17
  Weekly frequency of symptomatic RP attacks, Baseline, Mean (SD): 37.05 (18.643)
[2]; [4]
  Change in average Raynaud's Condition Score, difference compared to placebo: not statistically significant
  Change in average worst symptoms (pain, numbness, tingling, discomfort) associated with symptomatic RP, difference compared to placebo: not statistically significant
  Subject assessment of overall improvement using PGI-S and PGI-C, difference compared to placebo: not statistically significant
[2]; before treatment, N = 17
  Average weekly duration of symptomatic RP attacks, Baseline, Mean (SD): 586.97 (584.577) minutes
[2]; iloprost vs placebo
  Average weekly duration of symptomatic RP attacks, LS mean difference in change vs placebo (SE): −83.89 (107.728) minutes
[2]
  Subgroup comparison of prior vs after, LS mean difference in change (SE) of treatment difference: −6.91 (8.121)
[2]; listed as iloprost
  Subgroup comparison of prior vs after, LS mean difference in change (SE) of treatment difference: -6.91 (8.121)
[2]; subgroup randomized after 3 Jun. 2019
  Weekly frequency of symptomatic RP attacks, LS mean difference in change vs placebo (SE): 2.04 (5.453)
[2]; [5]
  Change from baseline in weekly frequency of symptomatic RP attacks, LS mean (SE): −15.38 (4.082)
  Weekly frequency of symptomatic RP attacks, Double-blind endpoint, Mean (SD): 23.73 (17.337)
[2]; subgroup randomized after 3 Jun. 2019, N = 9, before treatment
  Weekly frequency of symptomatic RP attacks, Baseline, Mean (SD): 37.23 (19.269)
[2]; subgroup randomized prior to 3 Jun. 2019
  Weekly frequency of symptomatic RP attacks, LS mean difference in change vs placebo (SE): −4.87 (6.074)
[2]; subgroup randomized prior to 3 Jun. 2019, listed as iloprost
  Weekly frequency of symptomatic RP attacks, LS mean difference in change vs placebo (SE): -4.87 (6.074)
[2]; [6]
  Change from baseline in weekly frequency of symptomatic RP attacks, LS mean (SE): −14.83 (4.180)
  Weekly frequency of symptomatic RP attacks, Double-blind endpoint, Mean (SD): 23.39 (11.923)
[2]; subgroup randomized prior to 3 Jun. 2019, n = 8, before treatment
  Weekly frequency of symptomatic RP attacks, Baseline, Mean (SD): 36.85 (19.235)
[3]; 1 ng/kg/min for 45 minutes
  non-compartmental clearance: 21 mL/min/kg
[3]; 2 ng/kg/min for 4 hours
  non-compartmental clearance: 24 mL/min/kg
[3]; 3 ng/kg/min for 45 minutes
  non-compartmental clearance: 20.6 mL/min/kg
